According to patent US11129845B2, “Compositions and methods for the delivery of nucleic acids” (CASE WESTERN RESERVE UNIVERSITY, priority 2014, dated 2021):

Experiments:
[1] = system: HT29 colon carcinoma cells; experiment: Cellular uptake of Alexa Fluor 488-siRNA via flow cytometry; type: cell-based, human; details: HT29, N/P=18, 4 h, 100 nM Alexa Fluor 488-siRNA
Description: Flow cytometry was used to investigate the cellular uptake of our delivery system in HT29 colon carcinoma cells. All carriers in the library were formulated into nanoparticles by condensing Alexa Fluor 488-labeled siRNA at the optimal N/P ratio determined by the above luciferase knockdown studies. Approximately 50,000 cancer cells were seeded in 6-well plates and allowed to grow until 30-50% confluence was reached. The cancer cells were transfected with a 100 nM siRNA dose in serum-free media. After 4 h, the transfection media were aspirated and the cells were washed twice with PBS. The cells were then trypsinized, collected, and fixed with 2% paraformaldehyde in PBS, prior to flow cytometric analysis.

GFP reporter protein = experiment: GFP reporter silencing in CHO-GFP cells (flow cytometry); type: cell-based, Chinese hamster; details: N/P=4, 48 h post-transfection, 100 nM siRNA
Description: The RNAi induced silencing capabilities of each carrier was investigated in both a CHO-GFP non-cancerous cell line and an HT29-Luc (luciferase) human colon cancer cell line. Approximately 50,000 CHO-GFP cells were seeded into 6 well plates. When 25% confluency was achieved, the growth media were replaced with fresh serum free transfection media containing siRNA nanoparticles, at a dose of 100 nM siRNA. Negative controls included cells that were either treated with naked anti-GFP siRNA or with plain serum-free media. N/P ratios of 4, 6, 8, 10, 12, and 14 were tested for each carrier to determine the optimal nanoparticle formulation. […] After 4 h, the media were removed and replaced with fresh complete growth media, and cells were allowed to grow for another 24, 48, or 72 h post-transfection. At each of these time points, the CHO-GFP cells were rinsed twice with PBS, trypsinized, and fixed with 2% paraformaldehyde. […] Cell-Quest software was used to analyze the results and obtain mean fluorescence intensity (MFI) values.
The RNAi capabilities of each carrier were investigated by analyzing the silencing of a luciferase (Luc) reporter in HT29 cancer cells after anti-Luc siRNA therapy. […] Luciferase expression was determined using a Spectra Max luminometer upon the addition of a light-inducing substrate to the collected protein. […]

HT29-Luc cells [2] = experiment: Live-cell confocal imaging of intracellular siRNA release; type: cell-based, human
Description: Live-cell confocal imaging was utilized to image the intracellular release and dispersion of siRNA following transfection with the lipid carrier that performed best during the reporter knockdown studies. Approximately 50,000 HT29-Luc cells were seeded onto glass-bottom dishes (MatTek—Ashland, Mass.). Once 40% confluency was established, the cells were stained with 75 nM LysoTracker Red DND-99 (Invitrogen) for 30 min in normal growth medium. Afterwards, the cells were transfected with 100 nM Alexa Fluor 488-labeled anti-Luc siRNA in fresh serum-free media using the designed cationic lipid agent that performed the best in the above reporter knockdown experiments. Imaging commenced 5 min post-transfection using an Olympus FV1000 confocal microscope, and continued periodically over the first 2 h. Throughout the course of the study, all cells were kept alive on the microscope in a humidified weather station under normal gas conditions (5% CO2). Another image was acquired after 24 h following re-administration of the LysoTracker stain.
Confocal microscopy was utilized to perform a time course study that analyzed the uptake and intracellular release kinetics of siRNA using the ECO delivery platform. Intracellular release and dispersion of siRNA is essential in RNA interference since the RNAi machinery is found in the cytosol. The images in FIG. 27 reveal that upon cellular uptake, the ECO nanoparticles are able to facilitate the escape of its siRNA payload from the endocytic pathway within the first 2 hours after transfection, avoiding lysosomal degradation. Such results are in congruence with the hemolytic activity data showing the membrane disruptive properties of the delivery system in pH environments characteristic of both endosomes and lysosomes.

HT29-Luc cells [3] = experiment: MTT cytotoxicity in HT29-Luc cells; type: cell-based, human

CCCCCCCC/C=C\CCCCCCCC(=O)N[C@@H](CS)C(=O)NCCNC(=O)CCN(CCN)CCC(=O)NCCNC(=O)[C@H](CS)NC(=O)CCCCCCC/C=C\CCCCCCCC [ECO, (1-aminoethyl)iminobis[N-(oleicylcysteinyl-1-amino-ethyl)propionamide]]
cellular uptake, mean fluorescence intensity (MFI) [1]: 2571±90
relative GFP reporter expression (GFP reporter protein): 61.0±5.05%
time to escape of siRNA payload from the endocytic pathway (HT29-Luc cells [2]; HT29-Luc, after transfection): ≤ 90 min
time to evade lysosomal degradation (HT29-Luc cells [2]; HT29-Luc, post-transfection): ≤ 1 h
time to escape of siRNA payload from the endocytic pathway (HT29-Luc cells [2]; after transfection (Example 3)): ≤ 120 min
cell viability (MTT) (HT29-Luc cells [3]; HT29, N/P=18): 87.3±2.72%
cell viability (MTT) (HT29-Luc cells [3]; HT29, N/P=20): 51.5±5.87%
